For 3 compounds, viability, T/C and IC50 results are on record in PubChem BioAssay AID1963870 (Molecular Pharmacology Branch, DTP, NCI, 2024).

Where “and” joins values, the source holds several entries; their conditions need not be identical. Equal entries are not always repeated.

The subject of the experiment is 292921-168-R-J2-PDC KRAS tumor spheroid viability. In words: Anticancer human tumor 292921-168-R-J2-PDC patient-derived pancreatic carcinoma cell line growth inhibition [KRAS2]. The note with it: spheroids with HUVEC and MSC; for viability, T/C: stronger effect = lower value. From the text: Multicellular complex tumor spheroid response to RAS pathway inhibitors in combination with a targeted agents in patient-derived cell lines with oncogenic KRAS variants from multiple cancer types
A high-throughput screen of multi-cell type tumor spheroids was designed to identify active combinations of targeted small molecules and KRAS pathway inhibitors. Complex spheroids include a stromal component modeled by human endothelial cells (HUVEC) and fibroblasts modeled by human mesenchymal stem cells (MSCs). The concentration ranges selected for each drug and investigational agent were based upon clinically achievable concentrations if the clinical Cmax of the agent was known.
Compounds. The drugs and investigational agents: BI-3406 (NSC825286), BAY-293 (NSC824723), batoprotafib (TNO155; NSC825523), sotorasib (AMG 510; NSC818433), MRTX1257 (NSC819558), elimusertib (BAY 1895344; NSC800525), molibresib (GSK525762; NSC774829), temuterkib (LY3214996; NSC803410), venetoclax (NSC766270), alisertib (NSC759677), olaparib (NSC753686), talazoparib (NSC767125), erdafitinib (NSC781556), ipatasertib (NSC767898), cabozantinib (NSC761068), nintedanib (NSC756659), abemaciclib (NSC768073), docetaxel (NSC628503), trametinib (NSC758246), and sapanisertib (NSC764658) were obtained from the National Cancer Institute (NCI) Developmental Therapeutics Program Chemical Repository. The FDA-approved anticancer drug set is available from the Developmental Therapeutics Program. […] The stock solutions were prepared in dimethyl sulfoxide (DMSO, Sigma-Aldrich, St. Louis, MO, cat. D2650) at 800-fold the tested concentration and stored at -70 degrees C prior to their use. All drugs and investigational agents were tested over a range starting from a high concentration at or near the clinical Cmax and decreasing in half-log increments. If the clinical Cmax for an agent had not been determined, the highest concentration tested was 10 microM.
Cell Culture. All cells were maintained in an incubator at 37 degrees C and 5% CO2 with 95% humidity. The PDC lines were cultured according to standard operating procedures established by the NCI PDMR (https://pdmr.cancer.gov/sops/default.htm). Briefly, all PDCs were thawed and cultured in Matrigel-coated flasks prepared with a working solution of 1X Ham's F-12 nutrient mix, without supplementation (Invitrogen, Waltham, MA, cat. 11765054), 100 U/mL penicillin-streptomycin (Invitrogen, cat. 15140122), and 2.5% Matrigel (Corning Inc., Corning, NY, cat. 354248) for the first three passages. All PDCs were cultured in complete DMEM/F-12 media containing advanced DMEM/F-12 (Invitrogen, cat. 12634028), 4.9% defined fetal bovine serum, heat inactivated (HyClone Laboratories Inc., Logan, UT, cat. SH30070.03HI), 389 ng/mL hydrocortisone (Sigma-Aldrich, cat. H4001), 9.7 ng/mL human EGF recombinant protein (Invitrogen, cat. PHG0313), 23.4 microg/mL adenine (Sigma-Aldrich, cat. A2786), 97.3 U/mL penicillin-streptomycin (Invitrogen, cat. 15140122), 1.9 mM L-glutamine (Invitrogen, cat. 25030081), and 9.7 microM Y-27632 dihydrochloride (Tocris Bioscience, Bristol, United Kingdom, cat. 1254). The PDCs were cultured in complete DMEM/F12 media without 9.7 microM Y-27632 dihydrochloride for at least two passages prior to the screen. The established cell line HOP-62 was cultured in RPMI 1640 medium, HEPES (Invitrogen, cat. 22400105) with 10% defined fetal bovine serum (HyClone Laboratories Inc., cat. SH30070.03) and 2 mM L-glutamine (Invitrogen, cat. 25030081). The pooled donor HUVEC were cultured in endothelial cell growth medium 2 (PromoCell, Heidelberg, Germany, cat. C-22011) and the hMSC were cultured in mesenchymal stem cell growth medium 2 (PromoCell, cat. C-28009). For all experiments, HUVEC and hMSC were used at passages </=5, while the malignant cell lines were used at passages </=15. […]
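Also: drug exposure lasted seven days after spheroids formed for three days.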
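For viability, T/C in this document: percent of DMSO vehicle control viability which is 100%.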

As a reminder, the viability, T/C is the result in the treated group divided by that in the control group, in per cent. The term IC50 denotes the concentration needed to halve the response being measured. In the case of `CC(C)NCC(C(=O)N1CCN(c2ncnc3c2C(C)CC3O)CC1)c1ccc(Cl)cc1` (centres undefined), the viability, T/C runs as follows: (compound 0.0316 µM) 93.8% [middle of 5 runs]; (compound 0.1 µM) 88.5% [middle of 5 runs]; (compound 0.316 µM) 83.5% [middle of 5 runs]; (compound 1 µM) 83.1% [middle of 5 runs]; (compound 3.16 µM) 76.5% [middle of 5 runs]; (compound 10 µM) 51.1% [middle of 5 runs]. Also, the 50% inhibitory concentration (IC50) (curve of compound) was > 10 µM and 9.74 µM.

Consider `COc1cc(OC)cc(N(CCNC(C)C)c2ccc3ncc(-c4cnn(C)c4)nc3c2)c1`, for which the viability, T/C (compound 0.0316 µM) was 72.9% [middle of 5 runs]; the viability, T/C (compound 0.1 µM) is 77.1% [middle of 5 runs]; the viability, T/C (compound 0.316 µM) is 77.7% [middle of 5 runs]; the viability, T/C (compound 1 µM) was 69.4% [middle of 5 runs]; the viability, T/C (compound 3.16 µM) was 45.9% [middle of 5 runs]; the viability, T/C (compound 10 µM) was 0.9% [middle of 5 runs]. The IC50 (curve of compound) is 2.48 µM [middle of 5 runs].

In the case of `COc1cc(Nc2ncc3c(n2)-c2ccc(Cl)cc2C(c2c(F)cccc2OC)=NC3)ccc1C(=O)O` + COc1cc2nc(C)nc(NC(C)c3cc(N)cc(C(F)(F)F)c3)c2cc1OC1CCOC1, the IC50 (curve of first compound, second compound 0.1 µM) is less than 0.0316 µM; the IC50 (curve of first compound, second compound 0.316 µM) is less than 0.0316 µM; the IC50 (curve of first compound, second compound 1 µM) was less than 0.0316 µM; the IC50 (curve of first compound, second compound 3.16 µM) is less than 0.0316 µM; the IC50 (curve of first compound, second compound 10 µM) is less than 0.0316 µM. In addition, the viability, T/C (second compound 0.1 µM, first compound 0.0316 µM) is 28.8%; the viability, T/C (second compound 0.1 µM, first compound 0.1 µM) is 23.7%; the viability, T/C (second compound 0.1 µM, first compound 0.316 µM) is 27.9%; the viability, T/C (second compound 0.1 µM, first compound 1 µM) was 25.8%; the viability, T/C (second compound 0.1 µM, first compound 3.16 µM) is 19.4%; the viability, T/C (second compound 0.1 µM, first compound 10 µM) was 16.9%. For the same compound, the viability, T/C reads like this: (second compound 0.316 µM, first compound 0.0316 µM) 26.3%; (second compound 0.316 µM, first compound 0.1 µM) 21.9%; (second compound 0.316 µM, first compound 0.316 µM) 27.4%; (second compound 0.316 µM, first compound 1 µM) 22.1%; (second compound 0.316 µM, first compound 3.16 µM) 22.3%; (second compound 0.316 µM, first compound 10 µM) 14.9%. Besides, the viability, T/C (second compound 1 µM, first compound 0.0316 µM) is 25%; the viability, T/C (second compound 1 µM, first compound 0.1 µM) is 24.5%; the viability, T/C (second compound 1 µM, first compound 0.316 µM) was 25.6%; the viability, T/C (second compound 1 µM, first compound 1 µM) is 23.4%; the viability, T/C (second compound 1 µM, first compound 3.16 µM) was 18.5%; the viability, T/C (second compound 1 µM, first compound 10 µM) was 13.6%. The viability, T/C runs as follows: (second compound 3.16 µM, first compound 0.0316 µM) 23.8%; (second compound 3.16 µM, first compound 0.1 µM) 20.5%; (second compound 3.16 µM, first compound 0.316 µM) 20.8%; (second compound 3.16 µM, first compound 1 µM) 22.1%; (second compound 3.16 µM, first compound 3.16 µM) 18.5%; (second compound 3.16 µM, first compound 10 µM) 14%. For the same compound, the viability, T/C was 15.1% (second compound 10 µM, first compound 0.0316 µM); 11.2% (second compound 10 µM, first compound 0.1 µM); 11.6% (second compound 10 µM, first compound 0.316 µM); 11.9% (second compound 10 µM, first compound 1 µM); 13.6% (second compound 10 µM, first compound 3.16 µM); 12.3% (second compound 10 µM, first compound 10 µM).
